Experimental data: patent US20160206629A1, “TOPICAL COMPOSITION COMPRISING A FILM-FORMING POLYMER FOR DELIVERING AN ACTIVE INGREDIENT TO SKIN” (LEO Pharma A/S, priority 2012, published 2016)

Assay: In vitro skin penetration, full thickness pig ear skin, Franz-type diffusion cells, 3H-BMV
Assay type: in vitro ADME
Experimental: To investigate the skin penetration and permeation of BMV from compositions according to example 1, a skin diffusion experiment was conducted. Full thickness skin from pig ears was used in the study. The skin was cleaned and kept frozen at −18° C. before use. On the day prior to the experiment the skin was placed in a refrigerator (5±3° C.) for slow defrosting.
Static Franz-type diffusion cells with an available diffusion area of 3.14 cm^2 and receptor volumes ranging from 8.6 to 11.1 ml were used in substantially the manner described by T. J. Franz, “The finite dose technique as a valid in vitro model for the study of percutaneous absorption in man”, in Current Problems in Dermatology, 1978, J. W. H. Mall (Ed.), Karger, Basel, pp. 58-68. The specific volume was measured and registered for each cell. A magnetic bar was placed in the receptor compartment of each cell. After mounting the skin, physiological saline (35° C.) was filled into each receptor chamber for hydration of the skin. The cells were placed in a thermally controlled water bath which was placed on a magnetic stirrer set at 300 rpm. […]
Samples (1 ml) of the receptor fluid remaining in the diffusion cell were collected and analysed.
The concentration of ^3H-BMV in the samples were determined by liquid scintillation counting.

CCCCC(=O)O[C@]1(C(=O)CO)[C@@H](C)C[C@H]2[C@@H]3CCC4=CC(=O)C=C[C@]4(C)[C@@]3(F)[C@@H](O)C[C@@]21C [BMV, betamethasone valerate]
permeation of BMV into the receptor medium (receptor medium acetate buffer pH 5.5 with 1% methyl-β-cyclodextrin): None | accumulation of BMV in skin layers (stratum corneum versus epidermis, FIG. 3): mainly accumulated in the stratum corneum
